We go through three compounds from patent US20110301110A1, “TRIM33 (TIF1gamma) AS A NEW DIAGNOSTIC MARKER OF CHRONIC MYELOMONOCYTIC LEUKEMIA (CMML)” (priority 2010, published 2011).

In one experiment the test system is NALM-6. As to conditions: NALM-6 human tumor cell line; cited from earlier work.
A further experiment concerns HCT116. Conditions: HCT116 human tumor cell line; cited from earlier work.
Experiment [1] has as its system TIF1γ expression in sorted PB monocytes (CD14+ cells). In words: TIF1γ expression (RQ-PCR, immuno-blotting) in sorted PB monocytes (CD14+ cells) of a CMML patient before and after treatment with decitabine. It counts as in vivo, human. As to conditions: one CMML patient with very low Tif1γ level, after 5 cycles of decitabine; sorted PB monocytes (FIG. 7A). The method, then:
Protein extracts were prepared from purified human monocytes (CD14+ cells) for SDS-PAGE and immuno-blotting with anti-TIF1γ antibody. Equivalent loading of lanes was controlled by the use of an anti-HSC70 antibody.

The next experiment has as its system control Lin- cells. The experiment in a line: control Lin- cells cultured for 10 days in the presence or absence of TGF-β or TGF-β inhibitor, formation of myeloid cells. The format is cell-based, mouse. As to conditions: 10 days culture, compared to untreated cultures. The method, then:
(§1) To answer this question, control and Tif1γ-deficient Lin^− cells were cultured for 10 days in the presence or absence of TGF-β. Cells were also treated with TGF-β inhibitor.

In experiment [2] the test system is Tif1γ-deficient Lin- cells. In words: Tif1γ-deficient Lin- cells cultured for 10 days in the presence or absence of TGF-β, myelopoiesis. It counts as cell-based, mouse. As to conditions: 10 days culture. As for the experimental part: as §1

Regarding `O=C(O)C(Cc1c[nH]c2ccccc12)N1C(=O)c2ccccc2C1=O` (centres unmarked) [RG 108, N-phthalyl-1-tryptophan], the proliferation entry in the experiment on NALM-6 and in the experiment on HCT116 was “inhibits” in each case.

For the compound `Nc1ncn([C@H]2C[C@H](O)[C@@H](CO)O2)c(=O)n1` [decitabine, 4-amino-1-(2-deoxy-b-D-erythro-pentofuranosyl)-1,3,5-triazin-2(1 H)-one], in experiment [1], the “TIF1γ expression, increase compared to the level measured before treatment” value turned out to be 8 fold.

Consider TGF-β, for which the “formation of myeloid cells” value in the experiment on control Lin- cells was “limited formation of myeloid cells”. Besides, the myelopoiesis entry in experiment [2] was “did not inhibit myelopoiesis”.
